From US20060257436A1, “Skin preparation composition for external use” (Shiseido Company, Ltd., priority 2003, published 2006) come the findings set out here.

≈ marks a conversion by molar mass, not a printed value. Read-outs that look alike come from different tables or passages of the source.

Series [1] has as its system Aspergillus niger (ATCC16404). The experiment in a line: Minimum inhibiting concentration (MIC), agar plate method. It counts as cell-based. As to the method:
(§1) Using the agar plate method, for bacteria, the following various bacteria were inoculated in SCD agar media (made by Eiken) containing 3-hexine-2,5-diol in different concentrations and cultured at 30° C. for 24 hours. […] Further, for fungi, the following various bacteria were inoculated in a potato dextrose agar media containing 3-hexine-2,5-diol in different concentrations and cultured at 25° C. for 48 hours. […] The same was conducted for methyl paraoxybenzoate methyl. The results of the judgment are shown in Table 1 based on the following evaluation criteria:
(§2) Using the agar plate method, for bacteria, the following various bacteria were inoculated in SCD agar media (made by Eiken) containing 3-hexine-2,5-diol in different concentrations and cultured at 30° C. for 24 hours. […] Further, for fungi, the following various bacteria were inoculated in a potato dextrose agar media containing 3-hexine-2,5-diol in different concentrations and cultured at 25° C. for 48 hours. […] The same was conducted for methyl paraoxybenzoate methyl. The results of the judgment are shown in Table III-1 based on the following evaluation criteria:
(§3) Using the agar plate method, for bacteria, the following various bacteria were inoculated in SCD agar media (made by Eiken) containing 3-hexine-2,5-diol in different concentrations and cultured at 30° C. for 24 hours. […] Further, for fungi, the following various bacteria were inoculated in a potato dextrose agar media containing the test compound, in different concentrations and cultured at 25° C. for 48 hours. […] The same was conducted for methyl paraoxybenzoate methyl. The results of the judgment are shown in Table VII-1 based on the following evaluation criteria: […]

Series [2] has as its system Candida albicans (ATCC10231). The description is as above. It counts as cell-based. As to the method:
as §1, §2, §3

In series [3] the test system is Escherichia coli (ATCC8739). The series is described as above. Type of series: cell-based. The procedure: as §1, §2, §3
The subject of series [4] is Pseudomonas aeuginosa (ATCC15442). Described as above. Type of series: cell-based. The procedure:
as §1, §2, §3

Series [5] relates to Staphylococcus aureus (ATCC6538). The description is as above. It counts as cell-based. As to the method: as §1, §2, §3
The conditions of series [6]: in vivo.
Description: (§4) The 3-hexine-2,5-diol of the present invention was tested for safety.
(§5) The glycerol derivatives of the present invention i.e., 3-phenoxy-1,2-propane diol and 3-benzyloxy-1,2-propane diol, were tested for safety.
(§6) The 2,2-dimethyl-1-phenyl-1,3-propanediol of the present invention was tested for safety.
For series [7] the following is noted: in vivo. The source holds these as a separate data set.
Description: as §4, §5, §6
The conditions of series [8]: in vivo. This is another data set of the same source.
Description: as §4, §5, §6
Another series can be described thus: Skin sensitization test. Particulars: in vivo.
Series [9] can be described thus: Primary skin irritation test. As to conditions: in vivo.
Description: as §4, §5, §6
The nature of series [10]: Continuous skin irritation test. As to conditions: in vivo.
Description: as §4, §5, §6
The mark [11] stands for this setting: Aspergillus niger (ATCC16404), read-out: Antimicrobial effect (minimum inhibiting concentration rank).
The mark [12] stands for this setting: Candida albicans (ATCC10231), read-out: Antimicrobial effect (minimum inhibiting concentration rank).
[13] abbreviates: Escherichia coli (ATCC8739), read-out: Antimicrobial effect (minimum inhibiting concentration rank).
The mark [14] stands for this setting: Pseudomonas aeuginosa (ATCC15442), read-out: Antimicrobial effect (minimum inhibiting concentration rank).
Setting [15] is: Staphylococcus aureus (ATCC6538), read-out: Antimicrobial effect (minimum inhibiting concentration rank).
Where [16] appears, read: Table I-1, potato dextrose agar media, 25° C., 48 hours.
Setting [17] is: Table I-1, SCD agar media, 30° C., 24 hours.
Setting [18] is: Table III-1, potato dextrose agar media, 25° C., 48 hours.
The mark [19] stands for this setting: Table III-1, SCD agar media, 30° C., 24 hours.

Description for Genetic toxicity test: as §4, §5, §6
Description for Skin sensitization test: as §4, §5, §6

In the case of `OCC(O)COCc1ccccc1` (stereo not drawn) [3-Benzyloxy-1,2-propane diol, 3-benzyloxy-1,2-propanediol], the MIC is under 1000 µg/mL in series [1] (Aspergillus niger, ATCC16404, Table III-1, potato dextrose agar media, 25° C., 48 hours, read-out: Antimicrobial effect: minimum inhibiting concentration (MIC)); under 1000 µg/mL in series [2] (Candida albicans, ATCC10231, Table III-1, potato dextrose agar media, 25° C., 48 hours, read-out: Antimicrobial effect: minimum inhibiting concentration (MIC)); under 1000 µg/mL in series [3] (Escherichia coli, ATCC8739, Table III-1, SCD agar media, 30° C., 24 hours, read-out: Antimicrobial effect: minimum inhibiting concentration (MIC)); under 1000 µg/mL in series [4] (Pseudomonas, ATCC15442, Table III-1, SCD agar media, 30° C., 24 hours, read-out: Antimicrobial effect: minimum inhibiting concentration (MIC)); under 1000 µg/mL in series [5] (Staphylococcus aureus, ATCC6538, Table III-1, SCD agar media, 30° C., 24 hours, read-out: Antimicrobial effect: minimum inhibiting concentration (MIC)). Under “single administration”, the “toxicity (single administration toxicity test)” value was “extremely weak”. Besides, the “skin irritability (primary skin irritation test)” value in series [6] is given as “extremely weak”. Further, in series [7], the “skin irritability (continuous skin irritation test)” value is on record as “extremely weak”. Besides, the “skin sensitization test result” value in [8] was “negative”.

In the case of `CC(C)(CO)C(O)c1ccccc1` (stereo not drawn), the MIC in series [1] (setting [11]), in [2] (setting [12]), in series [3] (setting [13]), in series [4] (setting [14]) and in [5] (setting [15]) was under 1000 µg/mL throughout. Besides, the “toxicity (single administration toxicity test)” value (single administration) is given as “extremely weak”. Also, the “skin irritability (primary skin irritation test)” value in [6] is “extremely weak”. Moreover, the “skin irritability (continuous skin irritation test)” value in series [7] is “extremely weak”. In [8], the “skin sensitization test result” value is “negative”.

`CC(O)C#CC(C)O` (stereo not drawn) [3-hexine-2,5-diol]: the “Antimicrobial effect: minimum inhibiting concentration (MIC)” value in [1] (setting [16]), in series [2] (setting [16]), in series [3] (setting [17]), in [4] (setting [17]) and in [5] (setting [17]) was “A (Minimum inhibiting concentration of less than 1000 ppm)” each time. Further, where the note is “single administration”, the “toxicity (single administration toxicity test)” value was “extremely weak”. Further, the “genetic toxicity test result” value in “Genetic toxicity test” is listed as “negative”. Besides, the “skin sensitization test result” value in the series “Skin sensitization test” was “negative”. For the same compound, the “skin irritability (primary skin irritation test)” value in series [9] is “extremely weak”. Moreover, the “skin irritability (continuous skin irritation test)” value in series [10] is on record as “extremely weak”.

Turning to `OCC(O)COc1ccccc1` (stereo not drawn) [3-Phenoxy-1,2-propane diol, 3-phenoxy-1,2-propanediol], the MIC in series [1] (Aspergillus niger, ATCC16404, 48 h, read-out: Antimicrobial effect: minimum inhibiting concentration (MIC)) is under 1000 µg/mL; in [2] (Candida albicans, ATCC10231, 48 h, read-out: Antimicrobial effect: minimum inhibiting concentration (MIC)) it was under 1000 µg/mL; in series [3] (Escherichia coli, ATCC8739, 24 h, read-out: Antimicrobial effect: minimum inhibiting concentration (MIC)) it was under 1000 µg/mL; in series [4] (Pseudomonas, ATCC15442, 24 h, read-out: Antimicrobial effect: minimum inhibiting concentration (MIC)) it was under 1000 µg/mL; in [5] (Staphylococcus aureus, ATCC6538, 24 h, read-out: Antimicrobial effect: minimum inhibiting concentration (MIC)) it was under 1000 µg/mL. Also, the “toxicity (single administration toxicity test)” value (in vivo) is “extremely weak”. Also, the “skin irritability (primary skin irritation test)” value in series [6] was “extremely weak”. In addition, the “skin irritability (continuous skin irritation test)” value in series [7] is recorded as “extremely weak”. Also, the “skin sensitization test result” value in series [8] is recorded as “negative”.

Turning to `COC(=O)c1ccc(O)cc1` [Methyl paraoxybenzoate, reference compound], the MIC in series [1] (Aspergillus niger (ATCC16404), read-out: Antimicrobial effect (minimum inhibiting concentration class)) was 1000 to 5000 µg/mL (≈ 6.57 to 32.9 mM); in series [1] (setting [11]) it was 1000 to 5000 µg/mL (≈ 6.57 to 32.9 mM); in series [1] (Aspergillus niger, ATCC16404, Table I-1, potato dextrose agar media, 25° C., 48 hours, read-out: Antimicrobial effect: minimum inhibiting concentration (MIC)), 1000 to 5000 µg/mL (≈ 6.57 to 32.9 mM); in series [2] (Candida albicans (ATCC10231), read-out: Antimicrobial effect (minimum inhibiting concentration class)), 1000 to 5000 µg/mL (≈ 6.57 to 32.9 mM); in series [2] (setting [12]) it was 1000 to 5000 µg/mL (≈ 6.57 to 32.9 mM); in series [2] (Candida albicans, ATCC10231, Table I-1, potato dextrose agar media, 25° C., 48 hours, read-out: Antimicrobial effect: minimum inhibiting concentration (MIC)), 1000 to 5000 µg/mL (≈ 6.57 to 32.9 mM). The MIC in series [3] (Escherichia coli (ATCC8739), read-out: Antimicrobial effect (minimum inhibiting concentration class)) lay within 1000 to 5000 µg/mL (≈ 6.57 to 32.9 mM); in [3] (setting [13]) it was 1000 to 5000 µg/mL (≈ 6.57 to 32.9 mM); in series [3] (Escherichia coli, ATCC8739, Table I-1, SCD agar media, 30° C., 24 hours, read-out: Antimicrobial effect: minimum inhibiting concentration (MIC)), 1000 to 5000 µg/mL (≈ 6.57 to 32.9 mM); in [4] (Pseudomonas aeuginosa (ATCC15442), read-out: Antimicrobial effect (minimum inhibiting concentration class)), 5000 to 10000 µg/mL (≈ 32.9 to 65.7 mM); in series [4] (setting [14]), 5000 to 10000 µg/mL (≈ 32.9 to 65.7 mM); in [4] (Pseudomonas, ATCC15442, Table I-1, SCD agar media, 30° C., 24 hours, read-out: Antimicrobial effect: minimum inhibiting concentration (MIC)) it was 5000 to 10000 µg/mL (≈ 32.9 to 65.7 mM). The MIC in series [5] (Staphylococcus aureus (ATCC6538), read-out: Antimicrobial effect (minimum inhibiting concentration class)) lay within 1000 to 5000 µg/mL (≈ 6.57 to 32.9 mM); in series [5] (setting [15]), 1000 to 5000 µg/mL (≈ 6.57 to 32.9 mM); in series [5] (Staphylococcus aureus, ATCC6538, Table I-1, SCD agar media, 30° C., 24 hours, read-out: Antimicrobial effect: minimum inhibiting concentration (MIC)), 1000 to 5000 µg/mL (≈ 6.57 to 32.9 mM). The “Antimicrobial effect: minimum inhibiting concentration (MIC)” value in series [1] (setting [18]) is recorded as “B (Minimum inhibiting concentration of 1000 ppm to less than 5000 ppm)”; in series [2] (setting [18]) it was “B (Minimum inhibiting concentration of 1000 ppm to less than 5000 ppm)”; in [3] (setting [19]) it was “B (Minimum inhibiting concentration of 1000 ppm to less than 5000 ppm)”; in [4] (setting [19]), “C (Minimum inhibiting concentration of 5000 ppm to less than 10000 ppm)”; in series [5] (setting [19]) it was “B (Minimum inhibiting concentration of 1000 ppm to less than 5000 ppm)”.
